In US11834414B2, “1-methyl-4-[(4-phenylphenyl)sulfonylmethyl]cyclohexyanol and 1-methyl-4-[[4-(2-pyridyl)phenyl]sulfonylmethyl]cyclohexanol compounds and their therapeutic use” (Modern Biosciences Limited, priority 2018, dated 2023):
In brackets after ≈: the same amount, converted by molar mass.

Legend:
[1] = Aqueous solubility in FaSSIF; format: physicochemical; conditions: pH 6.5, three replicates; for solubility at 16 h: kinetic from dmso stock
Method: Aqueous solubility was measured by equilibration of compounds with fasted state simulated intestinal fluid (FaSSIF) and quantified spectrophotometrically.
Preparation of blank FaSSIF: 0.21 g of sodium hydroxide (NaOH) pellets, 1.97 g of dihydrogen sodium phosphate (NaH2PO4.2H2O) and 3.09 g of sodium chloride (NaCl) were dissolved in 400 mL of deionised water. The pH was adjusted to 6.5 using 1 M hydrochloric acid and further deionised water added to a final volume of 500 mL.
Preparation of FaSSIF: 0.056 g of SIF Powder (containing sodium taurocholate and lecithin) (Phares AG) was dissolved in 25 mL of blank FaSSIF and stirred until the powder was completely dissolved. The solution was allowed to stand for 2 hours during which it became opalescent; it was used within 24 hours. The final solution composition was characterised as follows: • Sodium taurocholate: 3 mM • Lecithin: 0.75 mM • Osmolarity: 270±10 mOsmol • pH: 6.5
The optical density was measured at the end of the incubation period for test compounds and a reference used to determine solubility. In brief, two samples were prepared for each determination: a reference sample consisting of a stock solution of test compound in DMSO diluted in system solution (a phosphate free, low absorption buffer) and propanol; and a test sample (prepared in triplicate) consisting of 0.5 mL FaSSIF spiked with test compound at 0.2 mM. Each sample was incubated at room temperature for 16 hours with constant shaking at 250 rpm. At the end of the incubation period, 0.3 mL of each sample was filtered through a pION filter plate (PION, Woburn MA), diluted 1:1 with propanol and scanned using UV spectrophotometry at λmax ([…]) using a Spectra Max Plus—Version 2.1000 (Molecular Devices, Sunnyvale, CA), with pSOL Explorer solubility determination software (pION, Woburn, MA).
FaSSIF solubility was calculated using the following formula:
[formula] • wherein: • “OD” is the optical density; • “Cr” is the concentration of the reference (33.4 μM); and • “molecular weight” is for the test compound (e.g., 381.44 for ABD735).

[2] = system: cytochrome P450 (CYP450) enzymes
[3] = system: Thp1 human monocytic cells; assay: Thp1 Monocyte ATP Production Assay; format: cell-based; conditions: for IC50: Homo sapiens, THP-1, 24 h, Thp1 cells, 24 hour incubation, ATPLite, 9-point range 10 μM to 10 nM, mean of 2 independent experiments
Summary of the method: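 Cells plated at 112500/well in glucose-free RPMI-1640 with 1% FBS and exposed to compound for 24 h at 37 °C/5% CO2. ATP quantified by luciferase luminescence (ATPlite) and expressed as % of control viability. IC50 from 4-parameter fit, mean of two experiments.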

CYP3A4 = CYP3A4 (Homo sapiens (Human), UniProt P08684); assay: Human Cytochrome P450 Inhibition Assay (Bactosomes); format: in vitro ADME; conditions: recombinant Bactosomes, 10 minutes, 37° C.
Chain of CYP3A4 (P08684 whole entry): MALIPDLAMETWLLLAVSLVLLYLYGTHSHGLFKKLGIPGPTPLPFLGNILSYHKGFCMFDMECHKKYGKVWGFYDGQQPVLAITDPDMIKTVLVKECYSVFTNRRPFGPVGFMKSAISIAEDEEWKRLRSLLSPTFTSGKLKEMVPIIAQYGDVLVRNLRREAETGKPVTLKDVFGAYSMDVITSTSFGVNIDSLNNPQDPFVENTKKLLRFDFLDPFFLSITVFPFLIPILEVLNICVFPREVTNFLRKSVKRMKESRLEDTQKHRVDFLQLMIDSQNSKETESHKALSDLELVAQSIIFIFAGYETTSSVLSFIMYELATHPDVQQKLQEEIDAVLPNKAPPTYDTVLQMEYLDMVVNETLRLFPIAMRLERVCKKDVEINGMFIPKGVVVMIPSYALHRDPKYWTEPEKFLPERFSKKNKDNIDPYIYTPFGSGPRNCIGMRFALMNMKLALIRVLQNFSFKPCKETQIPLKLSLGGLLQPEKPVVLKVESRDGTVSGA

CYP1A2 = CYP1A2 (Homo sapiens (Human), UniProt P05177); assay: as above
Chain of CYP1A2 (P05177 whole entry): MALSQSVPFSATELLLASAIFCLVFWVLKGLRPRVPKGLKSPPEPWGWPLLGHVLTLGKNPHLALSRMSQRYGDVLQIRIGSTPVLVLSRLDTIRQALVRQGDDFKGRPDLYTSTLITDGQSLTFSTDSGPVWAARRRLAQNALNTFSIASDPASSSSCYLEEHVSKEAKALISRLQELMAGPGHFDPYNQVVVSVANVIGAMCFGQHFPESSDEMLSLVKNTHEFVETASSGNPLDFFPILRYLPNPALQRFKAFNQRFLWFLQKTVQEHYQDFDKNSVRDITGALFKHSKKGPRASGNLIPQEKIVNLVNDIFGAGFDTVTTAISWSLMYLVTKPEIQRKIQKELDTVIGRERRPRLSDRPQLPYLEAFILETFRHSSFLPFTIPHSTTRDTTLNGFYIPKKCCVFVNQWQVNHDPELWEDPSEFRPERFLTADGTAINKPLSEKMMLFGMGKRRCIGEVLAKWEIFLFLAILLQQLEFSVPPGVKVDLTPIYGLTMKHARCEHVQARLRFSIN

[4] = system: collagen-induced arthritis in DBA/1j mice; assay: Mouse Collagen-Induced Arthritis; format: in vivo; conditions: 10 mg/kg/day, once daily for 14 days, arthritic index vs control
Method: Seven- to eight-week-old male DBA/1j mice were used for all procedures. Animals were housed in groups of 10, and were maintained at 21° C.±2° C. on a 12-hour light/dark cycle with food and water ad libitum. Complete Freund's adjuvant (CFA) was prepared by emulsifying bovine type II collagen at 4 mg/mL with a 4 mg/mL suspension of Mycobacterium tuberculosis H37Ra in Incomplete Freund's Adjuvant (IFA) (0.85 mL paraffin oil and 0.15 mL mannide monooleate) in a 1:1 (v/v) ratio. All mice were immunised subcutaneously with 200 μg of bovine type II collagen in CFA. 21 days later, all mice were immunised subcutaneously with 100 μg of bovine type II collagen in IFA. The mice started to develop signs and symptoms of arthritis following the ‘booster’ immunisation.
For macroscopic assessment of arthritis, the following signs were monitored in each paw of each mouse three times per week and summed to generate the Arthritic Index (AI) (the maximum AI for one animal is 16): • 0=no visible effects of arthritis. • 1=oedema and/or erythema of 1 digit. • 2=oedema and/or erythema of 2 digits. • 3=oedema and/or erythema of more than 2 digits. • 4=severe arthritis of entire paw and digits.
Animals were sorted into treatment groups with a mean arthritic index of 2.5 and then dosed once daily for 14 days with compound: by oral gavage for test compounds, or by subcutaneous injection at a dose of 10 mg/kg for the positive control, etanercept. After completion of the experiment, the mice were sacrificed.
The data were analysed by generating an average of the arthritic index across each treatment group. The mean arthritic index was then compared to the arthritic index of control (untreated) animals using the following formula to generate a percentage inhibition of disease.

SMILES | solubility at 16 h [1] [µg/mL] | drug-drug interaction liability, CYP450 inhibition profile (in words) [2] | IC50 [3] [µM] | potency in the Thp1 monocytic ATP assay (in words) ([3]; compared to the reference compounds) | IC50 (CYP3A4) [µM] | IC50 (CYP1A2) [µM] | % inhibition of disease [4] [%] | Solubility ([1]; 16 hours) [µg/mL]
C[C@]1(O)CC[C@@H](CS(=O)(=O)c2ccc(-c3ccc(C#N)cc3F)cc2C(F)(F)F)CC1 [CHMSA-02-A, 2-fluoro-4′-(((cis-4-hydroxy-4-methylcyclohexyl)methyl)sulfonyl)-3′-(trifluoromethyl)-[1,1′-biphenyl]-4-carbonitrile] | 20 (≈ 43.9 µM) | particularly good profile | 0.1 | excellent potency | > 50 | > 50 | – | –
C[C@]1(O)CC[C@@H](CS(=O)(=O)c2ccc(-c3ncc(F)cc3F)c(F)c2)CC1 [CHMSA-03-A, cis-4-(((4-(3,5-difluoropyridin-2-yl)-3-fluorophenyl)sulfonyl)methyl)-1-methylcyclohexan-1-ol] | 70 (≈ 175 µM) | particularly good profile | 0.7 | – | > 50 | > 50 | 62 | –
C[C@]1(O)CC[C@@H](CS(=O)(=O)c2ccc(-c3ccc(C#N)cc3F)cc2)CC1 [CHMSA-01-A, 2-fluoro-4′-(((cis-4-hydroxy-4-methylcyclohexyl)methyl)sulfonyl)-[1,1′-biphenyl]-4-carbonitrile] | 10 (≈ 25.8 µM) | particularly good profile | 0.7 | – | > 50 | > 50 | 63 | –
C[C@]1(O)CC[C@H](NS(=O)(=O)c2ccc(-c3ccc(Cl)cc3C#N)cc2)CC1 [HMC-C-01-A, reference compound] | – | – | 0.63 | – | > 25 | 25 | 40 | 60 (≈ 148 µM)
